Test results as given in publication PMC10784468 (Nature Communications, 2024).
Positions of bridges follow the written chain, without caps; N, C: chain ends. Residues, ends and D or L forms follow the SMILES beside them. *: point of attachment. X1 = O=C(O)c1ccc(-c2c3nc(c(-c4ccc(C(=O)O)cc4)c4ccc([nH]4)c(-c4ccc(C(=O)*)cc4)c4nc(c(-c5ccc(C(=O)O)cc5)c5ccc2[nH]5)C=C4)C=C3)cc1; X2 = O=C(O)C/C(=C/C(=O)*)C(=O)O

How the values were obtained:
[1] = Critical aggregation concentration (pyrene probe, I338/I335); type: physicochemical; details: for I338/I335 (pyrene): pyrene 6 μM, emission 393 nm
Method: The CACs were determined using pyrene as a fluorescent probe. In brief, 50 μL of pyrene solution in acetone (480 μM) was added to a 5 mL centrifuge tube, followed by adding a series of peptide-porphyrin conjugate solutions with different concentrations, and the tube was kept overnight to evaporate the acetone completely, the concentration of pyrene being fixed at 6 μM at last. The excitation spectra of the solutions were recorded with the emission wavelength fixing at 393 nm, and the intensity ratio (I338/I335) was calculated as a function of the concentration. The CAC was determined based on the intersection point at low concentration on the plot.

ζ-potential in PBS = type: physicochemical
Method: Supplementary Fig. 12. ζ-potential change of Gi-F-CAA (40 μM) in PBS (0.01 M, pH 7.4 or 6.5) (n=3
experimental repeats). Experiment was independently repeated three times with similar results. Values are
(1 picture or pasted object on this page, not shown here)
Supplementary Fig. 13. ζ-potential of NGi-F-CAA, Gi-F and Gi-F-SA (pH 7.4) (40 μM) in PBS (n=3

EJ xenograft tumor = experiment: Penetration assay in tumor frozen sections (Cy labeled)
Method: Firstly, EJ xenograft mice were administrated with Cy labeled Gi-F (8 mg/kg in 100 μL PBS) and Cy labeled Gi-F-CAA (8 mg/kg in 100 μL PBS) by intravenous injection. Afterward, EJ tumor tissues were entirely resected and protected from light. Subsequently, the tumor tissues were fixed with optimum cutting temperature (OCT) compound for 12 h at −20 °C avoiding light. Finally, the fixed tumor tissues were cut into sections and immediately observed with UltraVIEW VoX.

EJ cells = experiment: Cytotoxicity assay (CCK-8) on EJ cells
Method: Initially, EJ cells were seeded into 96 well plates at a density of 5 × 10^3 per well and incubated in a CO2 incubator overnight at 37 °C. Subsequently, Gi-F (pH = 7.4), Gi-F-SA (pH = 7.4), NGi-F-CAA (pH = 7.4), NGi-F-CAA (pH = 6.5), Gi-F-CAA (pH = 7.4) and Gi-F-CAA (pH = 6.5) at different concentrations (1, 2, 4, 8, 16, 32, 64, 128 and 256 μM) was added to the cells and further incubated for 48 h. Finally, the cell viability rate was calculated by (Sample wells-Blank wells)/(Control wells-Blank wells) × 100%.

EJ xenograft tumors = experiment: In vivo antitumor evaluation in EJ xenograft model (tumor volume, tumor weight, body weight); details: 8 mg/kg i.v.; for mean tumor volume at 18 days post injection: six injections at 2-days intervals, n = 6; for Tumor weight: six injections, 18 days
Method: Female BALB/c nude mice (~8 weeks, 18 g) were subcutaneously inoculated with 5 × 10^6 EJ cells resuspended in Matrigel. When the tumor size reached about 100 mm^3, EJ tumor-bearing mice were randomly divided into four groups and administrated with PBS, Gi-F (8 mg/kg in 100 μL PBS), Gi-F-SA (8 mg/kg in 100 μL PBS) and Gi-F-CAA (8 mg/kg in 100 μL PBS) by intravenous injection at 2-days intervals for six times. Individual tumor volume and bodyweight of mouse after different treatment was collected at 2-days intervals for analysis. Mice were killed at 18 days post treatment unless endpoints were exceeded. Moreover, tumors from all groups were harvested under euthanasia and weighed for analysis at the end of treatment.

EJ tumor tissues [2] = experiment: Tumor GSH content detection; type: in vivo, BALB/c nude mice; details: for Relative content of GSH: tumor
Method: EJ tumor tissues were collected under euthanasia at the end of treatment and washed with PBS for 3 times. Afterwards, the tumor lysates were collected by centrifugation at 8000 rpm for 10 min at 4 °C after lysed with Frozen Type Tissuelyser. Finally, the GSH contents were measured with a GSH Assay Kit based on the manufacturer’s instructions.

EJ tumor tissues [3] = experiment: Tumor MDA content detection; type: in vivo, BALB/c nude mice; details: for Relative content of MDA: tumor
Method: EJ tumor tissues were collected under euthanasia at the end of treatment and washed with PBS for 3 times. Afterwards, the tumor lysates were collected by centrifugation at 8000 g for 10 min at 4 °C after lysed with Frozen Type Tissuelyser. Finally, the MDA contents were measured by thiobarbituric acid (TBA) reaction with a Malondialdehyde (MDA) Assay Kit (Solarbio Science & Technology Co., Ltd., China, BC0025) based on the manufacturer’s instructions.

GPX4 = target: T1, GPX4 (Homo sapiens, UniProt P36969); experiment: Tumor GPX4 activity detection; type: in vivo, BALB/c nude mice; design: from tissue; host or cells: EJ xenograft tumour tissue from BALB/c nude mice
T1 sequence (P36969 1-197): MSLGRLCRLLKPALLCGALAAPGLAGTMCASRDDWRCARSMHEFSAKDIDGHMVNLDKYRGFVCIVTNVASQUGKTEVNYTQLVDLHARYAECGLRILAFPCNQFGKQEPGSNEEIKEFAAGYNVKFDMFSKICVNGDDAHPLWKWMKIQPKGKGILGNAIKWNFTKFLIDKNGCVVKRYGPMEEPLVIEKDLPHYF
Method: EJ tumor tissues were collected under euthanasia at the end of treatment and washed with PBS for 3 times. Afterwards, the tumor lysates were collected by centrifugation at 5000 rpm for 10 min at 4 °C after lysed by freeze-thaw treatment. Finally, the GPX4 activity were measured with a GPX Assay Kit based on the manufacturer’s instructions.

[4] = EJ tumor tissues, 8 mg/kg i.v., versus PBS, Gi-F and Gi-F-SA

## CC(C)C[C@H](NC(=O)c1ccc(-c2c3nc(c(-c4ccc(C(=O)O)cc4)c4ccc([nH]4)c(-c4ccc(C(=O)O)cc4)c4nc(c(-c5ccc(C(=O)O)cc5)c5ccc2[nH]5)C=C4)C=C3)cc1)C(=O)N[C@@H](CCCCNC(=O)/C=C(/CC(=O)O)C(=O)O)C(=O)N[C@@H](CC(C)C)C(=O)N[C@@H](CCCCN)C(=O)N[C@@H](CC(C)C)C(=O)N[C@@H](CCCCNC(=O)/C=C(/CC(=O)O)C(=O)O)C(=O)NCC(=O)N[C@@H](C)C(=O)N[C@H]1CSSC[C@@H](C(=O)N2CCC[C@H]2C(=O)N[C@H](C(=O)O)C(C)C)NC(=O)[C@@H]2CCCN2C(=O)[C@H](Cc2ccc(O)cc2)NC(=O)[C@H](CC(C)C)NC(=O)[C@@H]2CCCN2C(=O)[C@H](CC(C)C)NC(=O)[C@H](Cc2c[nH]c3ccccc23)NC(=O)[C@H](CC(N)=O)NC1=O [Gi-F-CAA] (X1-LK(X2)LKLK(X2)GACNWLPLYPCPV-OH; disulfide 9-17; C-terminus assumed)
[1]; conjugate 0.97656 μM
  I338/I335 (pyrene): 0.974
[1]; conjugate 1.95313 μM
  I338/I335 (pyrene): 0.9716
[1]; conjugate 3.90625 μM
  I338/I335 (pyrene): 0.9744
[1]; conjugate 7.8125 μM
  I338/I335 (pyrene): 0.9774
[1]; conjugate 15.625 μM
  I338/I335 (pyrene): 0.9762
[1]; conjugate 31.25 μM
  I338/I335 (pyrene): 0.9729
[1]; conjugate 62.5 μM
  I338/I335 (pyrene): 0.9783
[1]; conjugate 125 μM
  I338/I335 (pyrene): 0.9903
[1]; conjugate 250 μM
  I338/I335 (pyrene): 1.02
[1]; conjugate 500 μM
  I338/I335 (pyrene): 1.0656
[1]; conjugate 1000 μM
  I338/I335 (pyrene): 1.12
[1]; pyrene probe, I338/I335, PBS 0.01 M, pH 7.4
  critical aggregation concentration (CAC): 149.5 µM
ζ-potential in PBS; 40 μM in PBS 0.01 M, pH 6.5
  ζ-potential change after incubation at pH 6.5: increased considerably
ζ-potential in PBS; pH 6.5, 0 min, mean
  Zeta potential (mV): -25.5 mV
ζ-potential in PBS; pH 6.5, 10 min, mean
  Zeta potential (mV): -19.8 mV
ζ-potential in PBS; pH 6.5, 30 min, mean
  Zeta potential (mV): -12.4 mV
ζ-potential in PBS; pH 6.5, 60 min, mean
  Zeta potential (mV): -7.6 mV
ζ-potential in PBS; pH 6.5, 90 min, mean
  Zeta potential (mV): -6.4 mV
ζ-potential in PBS; pH 6.5, 120 min, mean
  Zeta potential (mV): -5.5 mV
ζ-potential in PBS; pH 7.4, 0 min, mean
  Zeta potential (mV): -27.3 mV
ζ-potential in PBS; pH 7.4, 10 min, mean
  Zeta potential (mV): -25.6 mV
ζ-potential in PBS; pH 7.4, 30 min, mean
  Zeta potential (mV): -24.4 mV
ζ-potential in PBS; pH 7.4, 60 min, mean
  Zeta potential (mV): -23.4 mV
ζ-potential in PBS; pH 7.4, 90 min, mean
  Zeta potential (mV): -22.6 mV
ζ-potential in PBS; pH 7.4, 120 min, mean
  Zeta potential (mV): -22.5 mV
EJ xenograft tumor; EJ xenograft mice, Cy-labeled, 8 mg/kg i.v.
  tumor penetration, fluorescence distribution in tumor sections: distributed all over the tumor tissues
EJ cells; EJ cells, pH 6.5, 48 h, Fer-1, Supplementary Fig. 26
  cytotoxicity with ferroptosis inhibitor Fer-1: successfully rescued by Fer-1
EJ xenograft tumors
  mean tumor volume at 18 days post injection: 552 mm^3
EJ xenograft tumors; mice 1
  Tumor weight: 0.398 g
EJ xenograft tumors; mice 2
  Tumor weight: 0.419 g
EJ xenograft tumors; mice 3
  Tumor weight: 0.47 g
EJ xenograft tumors; mice 4
  Tumor weight: 0.318 g
EJ xenograft tumors; mice 5
  Tumor weight: 0.548 g
EJ xenograft tumors; mice 6
  Tumor weight: 0.402 g
EJ tumor tissues [2]; [4]
  GSH levels of tumor tissues: substantial reduction of GSH levels
EJ tumor tissues [2]; mice 1
  Relative content of GSH: 0.248
EJ tumor tissues [2]; mice 2
  Relative content of GSH: 0.322
EJ tumor tissues [2]; mice 3
  Relative content of GSH: 0.359
EJ tumor tissues [2]; mice 4
  Relative content of GSH: 0.285
EJ tumor tissues [2]; mice 5
  Relative content of GSH: 0.331
EJ tumor tissues [2]; mice 6
  Relative content of GSH: 0.276
EJ tumor tissues [3]; [4]
  LPO levels of tumor tissues: elevation
EJ tumor tissues [3]; mice 1
  Relative content of MDA: 4.75
EJ tumor tissues [3]; mice 2
  Relative content of MDA: 4.25
EJ tumor tissues [3]; mice 3
  Relative content of MDA: 4.65
EJ tumor tissues [3]; mice 4
  Relative content of MDA: 5.15
EJ tumor tissues [3]; mice 5
  Relative content of MDA: 4.25
EJ tumor tissues [3]; mice 6
  Relative content of MDA: 4.75
GPX4; mice 1
  Relative activity of GPX4: 0.21
GPX4; mice 2
  Relative activity of GPX4: 0.22
GPX4; mice 3
  Relative activity of GPX4: 0.2
GPX4; mice 4
  Relative activity of GPX4: 0.21
GPX4; mice 5
  Relative activity of GPX4: 0.22
GPX4; mice 6
  Relative activity of GPX4: 0.2

## FeTCPP-LKLKLK(SA)GACNWLPLYPCPV (disulfide) [Gi-F-SA, control conjugate decorated with non-sensitive succinic anhydride (SA) moieties]
ζ-potential in PBS; 40 μM in PBS, pH 7.4, mean of n = 3
  Zeta potential (mV): -21.4 mV
EJ xenograft tumor; mouse, in vivo, iv, 8 mg/kg
  tumor penetration, fluorescence distribution in tumor sections: penetrate into the tumor interior, while in a week fluorescence intensity
EJ cells; pH 7.4
  IC50: 40 µM
EJ xenograft tumors
  mean tumor volume at 18 days post injection: 1204 mm^3
EJ xenograft tumors; mice 1
  Tumor weight: 1.819 g
EJ xenograft tumors; mice 2
  Tumor weight: 1.454 g
EJ xenograft tumors; mice 3
  Tumor weight: 1.391 g
EJ xenograft tumors; mice 4
  Tumor weight: 1.595 g
EJ xenograft tumors; mice 5
  Tumor weight: 1.425 g
EJ xenograft tumors; mice 6
  Tumor weight: 1.689 g
EJ tumor tissues [2]; mice 1
  Relative content of GSH: 0.8
EJ tumor tissues [2]; mice 2
  Relative content of GSH: 0.832
EJ tumor tissues [2]; mice 3
  Relative content of GSH: 0.874
EJ tumor tissues [2]; mice 4
  Relative content of GSH: 0.837
EJ tumor tissues [2]; mice 5
  Relative content of GSH: 0.887
EJ tumor tissues [2]; mice 6
  Relative content of GSH: 0.74
EJ tumor tissues [3]; mice 1
  Relative content of MDA: 1.35
EJ tumor tissues [3]; mice 2
  Relative content of MDA: 1.45
EJ tumor tissues [3]; mice 3
  Relative content of MDA: 1.2
EJ tumor tissues [3]; mice 4
  Relative content of MDA: 1.75
EJ tumor tissues [3]; mice 5
  Relative content of MDA: 1.45
EJ tumor tissues [3]; mice 6
  Relative content of MDA: 1.3
GPX4; mice 1
  Relative activity of GPX4: 0.79
GPX4; mice 2
  Relative activity of GPX4: 0.8
GPX4; mice 3
  Relative activity of GPX4: 0.76
GPX4; mice 4
  Relative activity of GPX4: 0.79
GPX4; mice 5
  Relative activity of GPX4: 0.8
GPX4; mice 6
  Relative activity of GPX4: 0.76
